Experimental data published in publication PMC12888920, “MMP-9 regulates disulphide isomerase activity of TGM2 to enhance fusion glycoprotein-mediated syncytium formation of respiratory syncytial virus” (Protein & Cell, 2025).

Tests used:
RSV A2 [1] = experiment: High-throughput antiviral screening of protease inhibitor library against RSV A2 in HEp-2 cells; type: cell-based, Respiratory syncytial virus; conditions: RSV A2, MOI = 0.1, 1, 5, 10 µmol/L, 72 hpi
Excerpt: Figure 1. Antiviral activity of metalloproteinase inhibitors against RSV in vitro. (A) Experimental workflow for RSV A2 infection and compound treatment. (B) High-throughput screening of TargetMol L1100 library (246 host protease inhibitors targeting 10 pathways: MMPs, caspases, proteasomes, apoptosis regulators, cysteine proteases, gamma-secretase, autophagy modulators, serine proteases, DPP-4, and beta-secretase) using concentration gradients (1, 5, 10 µmol/L). HEp-2 cells were pretreated with compounds for 1 hour prior to RSV A2 infection (MOI = 0.1). Plaque formation was quantified at 72 hours post-infection (hpi) and normalized to DMSO controls. […] (G) Target overlap analysis of four MMP-9-targeting inhibitors. (H) Viral titers in supernatants of HEp-2 cells transfected with MMP-specific siRNAs (24 h) followed by RSV A2 infection (MOI = 1, 72 h). mean ± SD, n = 3. The results are representatively shown with three random experiments. The error bars indicate the mean ± SD of three technical replicates (n = 3). Statistical significance was determined by one-way ANOVA with Dunnett’s post hoc test: *P < 0.05, ***P < 0.001; ns, not significant.
104 High-throughput antiviral screening
105 The L1100 protease inhibitor library (246 compounds; L1100, TargetMol) was
106 screened against RSV A2 in HEp -2 cells. Compounds (10 mM DMSO stocks) were
107 robotically dispensed 1 h pre -infection at final concentrations of 1, 5, 10 μM.
108 Infection rates (72 hpi) were normalized to PC786 (1 μM; positive control; HY -
109 111813, MCE) and 0.1% DMSO vehicle. Primary hits (>50% CPE reduction + not
110 overtly cytotoxic) underwent dose -response validation (0.00004 –10 μM) to generate
111 EC50 curves (GraphPad Prism 8.0) .
112 Evaluation of in vitro antiviral activity
113 Compound inhibitor treatments: HEp-2 cells (1.3×10⁴/well) or HBEC (1.8×10⁴/well)
114 were pretreated with test compounds for 1 h before RSV A2/B18537 infection
115 (MOI=0.1 or 0.3). Viral inhibition was quantified at 72 hpi via FFA. Fixed cells (4%
116 PFA) were permeabilized (0.3% Triton X-100), stained with anti-RSV-FITC
118 Fluorescent foci were normalized to nuclear counts (ImageJ software) for EC 50
119 determination via four-parameter logistic regression (GraphPad Prism 8.0). Data
120 represent triplicate experiments. […]

RSV A2 [2] = experiment: BALB/c mouse model of RSV A2 infection, oral treatment; type: in vivo, BALB/c mice; conditions: 4 dpi, 3 × 10^6 PFU RSV A2
Experimental: To evaluate the antiviral efficacy of metalloproteinase inhibitors, we employed a BALB/c mouse model intranasally challenged with 3 × 10^6 PFU RSV A2. Mice received twice-daily oral administration of JNJ0966 (selective targeting of MMP-9 ([Scannevin et al., 2017]), 20 or 60 mg/kg [mpk]) or doxycycline hyclate (a broad-spectrum MMP inhibitor ([Patnaik et al., 2021]; [Samtani et al., 2009]), 60 or 180 mpk), beginning 2 hpi (Fig. 9A). By 4 dpi, JNJ0966 (60 mpk) and doxycycline hyclate (180 mpk) reduced lung viral titers by 2.6-fold and 2.0-fold, respectively, compared to vehicle-treated controls (Fig. 9B).
Figure 9. Therapeutic efficacy of MMP-9 inhibitors against RSV in mice. (A) Therapeutic regimen. […] Lung viral titers quantified by FFA at 4 dpi. mean ± SD, n = 5/group. […] Statistical significance was determined by one-way ANOVA with Dunnett’s post hoc test (B, D): **P < 0.01, ***P < 0.001. […]
314 50 μL of stop solution, absorbance at 540 nm was subtracted from the reading at
315 450 nm by PerkinElmer Ensight reader, and analyte concentrations were calculated […]
329 using a tissue grinder. Viral titers were quantified via FFA using 100 μL of […]
332 Two blinded pathologists independently scored histopathological changes on a 0 -4 […]
336 Body weights were monitored daily. […]
337 transcriptomic analyses. Viral loads were determined as focus -forming units per gram […]

Compound | inhibition of RSV infection in HEp-2 cells (RSV A2 [1]) | reduction of lung viral titers compared to vehicle-treated controls (RSV A2 [2]; 60 mpk oral twice daily) | reduction of lung viral titers compared to vehicle-treated controls (RSV A2 [2]; 180 mpk oral twice daily)
COc1ccccc1Nc1nc(-c2sc(NC(C)=O)nc2C)cs1 [JNJ0966] | significant dose-dependent inhibition | 2.6 fold | –
Doxycycline hyclate | significant dose-dependent inhibition | – | 2.0 fold
